# Laboratory results as given in patent US20040071762A1, “Diagnostic test for schizophrenia, using niacin” (Scotia Holdings PLC, priority 1996, published 2004).
# Like-named read-outs stand apart in the source and are kept apart here.
# What was measured:
# skin [1] = conditions: 100-300 mg given orally, cited from earlier work
# skin [2] = assay: Topical niacin skin patch test, redness (flushing) scored 0-3; format: in vivo, human; conditions: for Percentage responding with absent [0] reddening of the skin / Percentage responding with marked [3] reddening of the skin / Percentage responding with mild [1] reddening of the skin / Percentage responding with moderate [2] reddening of the skin: 5 minutes
# From the text: The test involves the topical application of niacin solutions, preferably in a carrier such as gauze, cotton, wax or appropriate fibre or absorbent material, to the skin of any part of the body, but conveniently the forearm or upper arm. A range of solutions may be used from 0.00001M to 1 molar. A single concentration may be chosen and used but desirably use is made of a range of steps varying from two to twenty. We have found it convenient is to use a range of four solutions of 0.1, 0.01, 0.001 and 0.0001M, e.g. 0.05 ml of each, but other concentrations within the range and other numbers of steps can be used as found appropriate, both in diagnosis and in monitoring as discussed above. […] The wells or depressions may be sealed by another plastic or other strip which isolates them from the atmosphere and which can be removed immediately prior to testing. The strip with the open wells can then be applied to the skin surface with light pressure and removed after an appropriate time which may be e.g. 0.5 minutes up to 10 or 15 minutes but preferably 3 to 6 minutes.
# Both of these effects are due to vasodilatation of the small blood vessels of the skin. The redness may be scored in relation to the adjacent unaffected skin on an appropriate scale which can be either “present” or “absent”, or can be semi-quantitative, such as mild, moderate or marked, or can be made fully quantitative by use of a spectrophotometer or other appropriate instrument e.g. a blood flow meter. The oedema can likewise be scored as present or absent or can be scored semi-quantitatively or quantitatively.
# We have also used a scoring system in which the degree of redness under each patch was scored as 0=no change, 1=mild redness, 2=moderate redness and 3=marked redness. When the test is used commercially, sample colour charts may show how the test can be used with individuals of varying skin colour. With particularly dark-skinned individuals, oedema or a measurement of skin surface temperature or heat loss may be required to give the best results.
# [3] = normal controls (n=22), topical niacin 0.000. M
# [4] = normal controls (n=22), topical niacin 0.001 M
# [5] = normal controls (n=22), topical niacin 0.01 M
# [6] = normal controls (n=22), topical niacin 0.1 M
# [7] = schizophrenics (n=38), topical niacin 0.000. M
# [8] = schizophrenics (n=38), topical niacin 0.001 M
# [9] = schizophrenics (n=38), topical niacin 0.01 M
# [10] = schizophrenics (n=38), topical niacin 0.1 M
compound,measurement,setting,value
"O=C(O)c1cccnc1 [Niacin, nicotinic acid]",Flushing response to oral niacin,skin [1]; a substantial proportion of schizophrenics,fail to flush
same,Flushing response to oral niacin,skin [1]; most normal individuals,flush markedly
same,Response to topical niacin test in depressives,"skin [2]; depressives, expected by analogy with oral niacin",the same as for normal individuals
same,Percentage responding with absent [0] reddening of the skin,skin [2]; [3],35.3%
same,Percentage responding with marked [3] reddening of the skin,skin [2]; [3],17.6%
same,Percentage responding with mild [1] reddening of the skin,skin [2]; [3],29.4%
same,Percentage responding with moderate [2] reddening of the skin,skin [2]; [3],17.6%
same,Percentage responding with absent [0] reddening of the skin,skin [2]; [4],31.8%
same,Percentage responding with marked [3] reddening of the skin,skin [2]; [4],18.2%
same,Percentage responding with mild [1] reddening of the skin,skin [2]; [4],9.1%
same,Percentage responding with moderate [2] reddening of the skin,skin [2]; [4],40.9%
same,Percentage responding with absent [0] reddening of the skin,skin [2]; [5],9.1%
same,Percentage responding with marked [3] reddening of the skin,skin [2]; [5],31.8%
same,Percentage responding with mild [1] reddening of the skin,skin [2]; [5],13.6%
same,Percentage responding with moderate [2] reddening of the skin,skin [2]; [5],45.5%
same,Percentage responding with absent [0] reddening of the skin,skin [2]; [6],4.5%
same,Percentage responding with marked [3] reddening of the skin,skin [2]; [6],59.1%
same,Percentage responding with mild [1] reddening of the skin,skin [2]; [6],9.1%
same,Percentage responding with moderate [2] reddening of the skin,skin [2]; [6],27.3%
same,Percentage responding with absent [0] reddening of the skin,skin [2]; [7],88.2%
same,Percentage responding with marked [3] reddening of the skin,skin [2]; [7],0%
same,Percentage responding with mild [1] reddening of the skin,skin [2]; [7],8.8%
same,Percentage responding with moderate [2] reddening of the skin,skin [2]; [7],2.9%
same,Percentage responding with absent [0] reddening of the skin,skin [2]; [8],67.6%
same,Percentage responding with marked [3] reddening of the skin,skin [2]; [8],0%
same,Percentage responding with mild [1] reddening of the skin,skin [2]; [8],29.4%
same,Percentage responding with moderate [2] reddening of the skin,skin [2]; [8],2.9%
same,Percentage responding with absent [0] reddening of the skin,skin [2]; [9],41.2%
same,Percentage responding with marked [3] reddening of the skin,skin [2]; [9],0%
same,Percentage responding with mild [1] reddening of the skin,skin [2]; [9],41.2%
same,Percentage responding with moderate [2] reddening of the skin,skin [2]; [9],17.6%
same,Percentage responding with absent [0] reddening of the skin,skin [2]; [10],13.5%
same,Percentage responding with marked [3] reddening of the skin,skin [2]; [10],5.4%
same,Percentage responding with mild [1] reddening of the skin,skin [2]; [10],37.8%
same,Percentage responding with moderate [2] reddening of the skin,skin [2]; [10],43.2%
NC(=O)c1cccnc1 [Nicotinamide],Flushing reaction in normal individuals,"skin [2]; form passing the skin, suitability for the topical test",does not elicit the reaction
